# Assay results reported in PMC10584170, “Machine learning-based phenotypic imaging to characterise the targetable biology of Plasmodium falciparum male gametocytes for the development of transmission-blocking antimalarials” (PLOS Pathogens, 2023).
# pIC50: −log10 of the molar value. Like-named read-outs stand apart in the source and are kept apart here.
# What was measured:
# [1] = tested on: P. falciparum male gametocytes; assay: P. falciparum Dual Gamete Formation Assay (PfDGFA), male readout (exflagellation); type: cell-based, Plasmodium falciparum NF54; details: for Selectivity Ratio M: HepG2 Tox50 versus male IC50; for pIC50: read-out: Male IC50; for HitlevelM: number of replicates with >50% inhibition in the male readout
# Summary of the method: (§1)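 Two sex-specific readouts come from one well: male exflagellation centres recorded by brightfield video right after activation, and female gametes scored by Cy3-anti-Pfs25 fluorescence after 24 h at 28°C.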
# [2] = tested on: P. falciparum female gametocytes; assay: P. falciparum Dual Gamete Formation Assay (PfDGFA), female readout (Pfs25-positive female gametes); type: cell-based, Plasmodium falciparum NF54; details: for Selectivity ratio F: HepG2 Tox50 versus female IC50; for pIC50: read-out: Female IC50; for HitlevelF: number of replicates with >50% inhibition in the female readout
# Summary of the method: as §1
# [3] = tested on: HepG2 cells; assay: HepG2 cytotoxicity counter-screen
# [4] = PfDGFA at 2µM, 24h preincubation with gametocytes, average of replicates
# [5] = PfDGFA at 2µM, 24h preincubation with gametocytes, replicate R1
# [6] = PfDGFA at 2µM, 24h preincubation with gametocytes, replicate R3
# [7] = PfDGFA at 2µM, 24h preincubation with gametocytes, replicate R4
# [8] = PfDGFA, 24 h incubation with gametocytes before induction, exflagellation readout
# [9] = PfDGFA, 24 h incubation with gametocytes before induction, female gamete readout
# [10] = cytotoxic activity against HepG2 cells
# [11] = 2µM, 24h preincubation with gametocytes prior to induction of gametogenesis, average of replicates
# [12] = 2µM, 24h preincubation with gametocytes prior to induction of gametogenesis, replicate R1
# [13] = 2µM, 24h preincubation with gametocytes prior to induction of gametogenesis, replicate R3
# [14] = 2µM, 24h preincubation with gametocytes prior to induction of gametogenesis, replicate R4
SMILES,Selectivity Ratio M [1],"Average inhibition male (%) [1, 4] [%]","% inhibition male (individual replicates) R1 [1, 5] [%]","% inhibition male (individual replicates) R3 [1, 6] [%]","% inhibition male (individual replicates) R4 [1, 7] [%]","pIC50 [1, 8]",HitlevelM ([1]; 2µM),Selectivity ratio F [2],"Average inhibition female (%) [2, 4] [%]","% inhibition female (individual replicates) R1 [2, 5] [%]","% inhibition female (individual replicates) R3 [2, 6] [%]","% inhibition female (individual replicates) R4 [2, 7] [%]","pIC50 [2, 9]",HitlevelF ([2]; 2µM),"Tox50 [3, 10] [µM]",other results
COc1ccc(CCNCCCCCCNCCc2ccc(Cl)cc2)c(Cl)c1OC.Cl [TCMDC-131272],2.8,69.3,64.8,45.7,90.2,5.75,3,1.14,29.4,25.7,-3.5,29.5,5.36,1,4.93,
C[C@H](Cc1ccc(Oc2ccc(C[C@@H](C)NC[C@H](O)c3cccc(Cl)c3)cc2)cc1)NC[C@H](O)c1cccc(Cl)c1.Cl [TCMDC-131560],2.05,76.2,79.7,57.0,91.6,5.82,4,1.25,43.2,35.8,26.6,73.1,5.61,1,3.07,
C[C@H](Cc1ccc(OCCCCCOc2ccc(C[C@@H](C)NC[C@H](O)c3cccc(Cl)c3)cc2)cc1)NC[C@H](O)c1cccc(Cl)c1.Cl [TCMDC-131563],2.4,65.6,66.8,65.3,85.7,5.87,3,1.3,27.5,37.3,14.2,41.5,5.60,0,3.24,
CC[C@H]1CN2CCc3cc(OC)c(OC)cc3[C@@H]2C[C@@H]1C[C@H]1NCCc2c1cc(OC)c(O)c2Cl [TCMDC-131802],,,,,,5.72,,,,,,,6.19,,,"Average inhibition male (%) [1, 11]: 54.2%; % inhibition male (individual replicates) R1 [1, 12]: 49.4%; % inhibition male (individual replicates) R3 [1, 13]: 27.8%; % inhibition male (individual replicates) R4 [1, 14]: 72.9%; HitlevelM ([1]; 2µM, 24h preincubation): 2; Average inhibition female (%) [2, 11]: 66.5%; % inhibition female (individual replicates) R1 [2, 12]: 51.1%; % inhibition female (individual replicates) R3 [2, 13]: 66.5%; % inhibition female (individual replicates) R4 [2, 14]: 85.4%; HitlevelF ([2]; 2µM, 24h preincubation): 4; Tox50 [3]: 1.67 µM"
Br.CC[C@H]1CN2CCc3cc(OC)c(OC)cc3[C@@H]2C[C@@H]1C[C@H]1NCCc2c1cc(OC)c(O)c2I [TCMDC-131829],7.59,,,,,,4,21.58,,,,,,4,6.35,"pIC50 ([1]; Plasmodium falciparum, 24 h): 6.08; inhibition at 2 µM ([1]; Plasmodium falciparum, read-out: % inhibition male (individual replicates) R1): 84.6%; inhibition at 2 µM ([1]; Plasmodium falciparum, read-out: % inhibition male (individual replicates) R2): 83.8%; inhibition at 2 µM ([1]; Plasmodium falciparum, read-out: % inhibition male (individual replicates) R3): 88.6%; inhibition at 2 µM ([1]; Plasmodium falciparum, read-out: % inhibition male (individual replicates) R4): 95.7%; inhibition at 2 µM ([1]; Plasmodium falciparum, read-out: Average inhibition male (%)): 88.2%; pIC50 ([2]; Plasmodium falciparum, 24 h): 6.54; inhibition at 2 µM ([2]; Plasmodium falciparum, read-out: % inhibition female (individual replicates) R1): 83.8%; inhibition at 2 µM ([2]; Plasmodium falciparum, read-out: % inhibition female (individual replicates) R2): 92.3%; inhibition at 2 µM ([2]; Plasmodium falciparum, read-out: % inhibition female (individual replicates) R3): 106%; inhibition at 2 µM ([2]; Plasmodium falciparum, read-out: % inhibition female (individual replicates) R4): 88.5%; inhibition at 2 µM ([2]; Plasmodium falciparum, read-out: Average inhibition female (%)): 92.8%"
N=C(N)NCCN(Cc1ccccc1)c1ccc(Cl)cc1 [TCMDC-131838],72.58,,,,,,,7.49,,,,,,,48.68,"inhibition at 2 µM ([1]; Plasmodium falciparum, 2µM, 24h preincubation with gametocytes, average of replicates, read-out: Average inhibition male (%)): 98.3%; inhibition at 2 µM ([1]; Plasmodium falciparum, 2µM, 24h preincubation with gametocytes, replicate R1, read-out: % inhibition male (individual replicates) R1): 96.5%; inhibition at 2 µM ([1]; Plasmodium falciparum, 2µM, 24h preincubation with gametocytes, replicate R2, read-out: % inhibition male (individual replicates) R2): 98.5%; inhibition at 2 µM ([1]; Plasmodium falciparum, 2µM, 24h preincubation with gametocytes, replicate R3, read-out: % inhibition male (individual replicates) R3): 97.4%; inhibition at 2 µM ([1]; Plasmodium falciparum, 2µM, 24h preincubation with gametocytes, replicate R4, read-out: % inhibition male (individual replicates) R4): 101%; pIC50 ([1]; Plasmodium falciparum, PfDGFA, 24 h incubation with gametocytes before induction, exflagellation readout): 6.17; inhibition at 2 µM ([2]; Plasmodium falciparum, 2µM, 24h preincubation with gametocytes, average of replicates, read-out: Average inhibition female (%)): 61.5%; inhibition at 2 µM ([2]; Plasmodium falciparum, 2µM, 24h preincubation with gametocytes, replicate R1, read-out: % inhibition female (individual replicates) R1): 40.2%; inhibition at 2 µM ([2]; Plasmodium falciparum, 2µM, 24h preincubation with gametocytes, replicate R2, read-out: % inhibition female (individual replicates) R2): 88.5%; inhibition at 2 µM ([2]; Plasmodium falciparum, 2µM, 24h preincubation with gametocytes, replicate R3, read-out: % inhibition female (individual replicates) R3): 50%; inhibition at 2 µM ([2]; Plasmodium falciparum, 2µM, 24h preincubation with gametocytes, replicate R4, read-out: % inhibition female (individual replicates) R4): 67.4%; pIC50 ([2]; Plasmodium falciparum, PfDGFA, 24 h incubation with gametocytes before induction, female gamete readout): 5.19"
COc1cc2nc(NCCCN3CCCCC3)nc(NCc3ccccc3)c2cc1OC [TCMDC-132012],5.75,71.6,87.9,87.5,91.8,5.72,3,1.71,56.5,53.1,57.0,64.1,5.20,4,10.87,
CCc1c(CCNCCCCCCNC(C)(C)Cc2ccc3c(c2CC)OCO3)ccc(OC)c1OC.Cl [TCMDC-132055],2.57,75.9,71.0,61.7,83.6,5.86,4,0.81,27.4,20.6,-1.3,28.0,5.36,1,3.55,
CCc1c(CCNCCCC(C)CCNCCc2ccc(OC)c(OC)c2CC)ccc(OC)c1OC.Cl (stereo not drawn) [TCMDC-132065],2.01,,,,,5.71,,0.73,,,,,5.27,,3.92,"Average inhibition male (%) [1, 11]: 50.4%; % inhibition male (individual replicates) R1 [1, 12]: 69.1%; % inhibition male (individual replicates) R3 [1, 13]: 65.3%; % inhibition male (individual replicates) R4 [1, 14]: 65.1%; HitlevelM ([1]; 2µM, 24h preincubation): 3; Average inhibition female (%) [2, 11]: 11.1%; % inhibition female (individual replicates) R1 [2, 12]: 14.0%; % inhibition female (individual replicates) R3 [2, 13]: -5.8%; % inhibition female (individual replicates) R4 [2, 14]: 27.9%; HitlevelF ([2]; 2µM, 24h preincubation): 0"
COc1cccc(CCc2c(CCNCCCCCCNCCc3ccccc3)ccc(OC)c2OC)c1.Cl [TCMDC-132105],2.34,79.5,90.7,81.0,99.1,5.92,3,4.54,52.1,47.4,59.7,72.0,6.21,2,2.82,
COc1ccc(CNC2CCN(C)CC2)cc1-c1ccc(S(=O)(=O)NCc2ccccc2)s1.O=C(O)C(F)(F)F [TCMDC-132253],3.9,82.6,86.4,70.7,89.6,5.86,4,1.37,28.1,31.4,13.9,24.4,5.40,0,5.43,
